What follows are compounds tested on GST-Bcl-2 (assay: TR-FRET binding assay, Bcl-2). Conditions: TR-FRET Ki values.
How it was run: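 Compounds serially diluted in DMSO from 50 μM (2× starting concentration, 10% DMSO), mixed with GST-tagged protein, F-Bak peptide probe and Tb-labeled antibody, incubated 3 h at room temperature.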
With `CN(C)CCCN(C)c1ccc(S(=O)(=O)NC(=O)c2ccc(N3CCN(Cc4ccccc4-c4ccc(Cl)cc4)CC3)cc2Oc2ccccc2)cc1[N+](=O)[O-]` [Example 87, 4-{4-[(4′-chloro-1,1′-biphenyl-2-yl)methyl]piperazin-1-yl}-N-({4-[[3-(dimethylamino)propyl](methyl)amino]-3-nitrophenyl}sulfonyl)-2-phenoxybenzamide] the “Binding selectivity ratio (Bcl-XL Ki/Bcl-2 Ki)” value (from here on “Binding selectivity ratio”) was 533.8.
For `CC1(C)CCC(CN2CCN(c3ccc(C(=O)NS(=O)(=O)c4ccc(OCC5(F)CCOCC5)c([N+](=O)[O-])c4)c(Oc4ccc5[nH]ccc5c4)c3)CC2)=C(c2ccc(Cl)cc2)C1` [EXAMPLE 327, 4-(4-{[2-(4-chlorophenyl)-4,4-dimethylcyclohex-1-en-1-yl]methyl}piperazin-1-yl)-N-({4-[(4-fluorotetrahydro-2H-pyran-4-yl)methoxy]-3-nitrophenyl}sulfonyl)-2-(1H-indol-5-yloxy)benzamide], the “Binding selectivity ratio” value was 3035.4.
`CN(C)CCOc1cccc(-c2ccc(Cl)cc2)c1CN1CCN(c2ccc(C(=O)NS(=O)(=O)c3ccc(NCC4CCOCC4)c(S(=O)(=O)C(F)(F)F)c3)c(Oc3ccccc3)c2)CC1` [Example 124, 4-[4-({4′-chloro-3-[2-(dimethylamino)ethoxy]-1,1′-biphenyl-2-yl}methyl)piperazin-1-yl]-2-phenoxy-N-({4-[(tetrahydro-2H-pyran-4-ylmethyl)amino]-3-[(trifluoromethyl)sulfonyl]phenyl}sulfonyl)benzamide] was tested, and the “Binding selectivity ratio” value was 220.1.
With `CN1CCN(Nc2ccc(S(=O)(=O)NC(=O)c3ccc(N4CCN(CC5=C(c6ccc(Cl)cc6)CC(C)(C)CC5)CC4)cc3Oc3cccc4[nH]cnc34)cc2[N+](=O)[O-])CC1` [EXAMPLE 453, 2-(1H-benzimidazol-4-yloxy)-4-(4-{[2-(4-chlorophenyl)-4,4-dimethylcyclohex-1-en-1-yl]methyl}piperazin-1-yl)-N-({4-[(4-methylpiperazin-1-yl)amino]-3-nitrophenyl}sulfonyl)benzamide] the “Binding selectivity ratio” value was 363.04.
`CC1(C)CCC(CN2CCN(c3ccc(C(=O)NS(=O)(=O)c4ccc(N[C@H]5CC[C@H](N6CCOCC6)CC5)c([N+](=O)[O-])c4)c(Oc4cccc5[nH]cnc45)c3)CC2)=C(c2ccc(Cl)cc2)C1` [EXAMPLE 452, Trans-2-(1H-benzimidazol-4-yloxy)-4-(4-{[2-(4-chlorophenyl)-4,4-dimethylcyclohex-1-en-1-yl]methyl}piperazin-1-yl)-N-({4-[(4-morpholin-4-ylcyclohexyl)amino]-3-nitrophenyl}sulfonyl)benzamide] was tested, and the “Binding selectivity ratio” value was 600.39.
`CC1(C)CCC(CN2CCN(c3ccc(C(=O)NS(=O)(=O)c4ccc(NCCC(F)(F)F)c([N+](=O)[O-])c4)c(Oc4ccc5[nH]ccc5c4)c3)CC2)=C(c2ccc(Cl)cc2)C1` [EXAMPLE 324, 4-(4-{[2-(4-chlorophenyl)-4,4-dimethylcyclohex-1-en-1-yl]methyl}piperazin-1-yl)-2-(1H-indol-5-yloxy)-N-({3-nitro-4-[(3,3,3-trifluoropropyl)amino]phenyl}sulfonyl)benzamide] was tested, and the “Binding selectivity ratio” value was >445.7.
For `CC1(C)CCC(CN2CCN(c3ccc(C(=O)NS(=O)(=O)c4ccc(NCC5COCCO5)c([N+](=O)[O-])c4)c(Oc4cccc5[nH]cnc45)c3)CC2)=C(c2ccc(Cl)cc2)C1` (centres unmarked) [EXAMPLE 450, 2-(1H-benzimidazol-4-yloxy)-4-(4-{[2-(4-chlorophenyl)-4,4-dimethylcyclohex-1-en-1-yl]methyl}piperazin-1-yl)-N-({4-[(1,4-dioxan-2-ylmethyl)amino]-3-nitrophenyl}sulfonyl)benzamide], the “Binding selectivity ratio” value was 107.3.
In the case of `O=C(NS(=O)(=O)c1ccc(NCCn2nccn2)c([N+](=O)[O-])c1)c1ccc(N2CCN(Cc3ccccc3-c3ccc(Cl)cc3)CC2)cc1Oc1ccccc1` [Example 165, 4-{4-[(4′-chloro-1,1′-biphenyl-2-yl)methyl]piperazin-1-yl}-N-[(3-nitro-4-{[2-(2H-1,2,3-triazol-2-yl)ethyl]amino}phenyl)sulfonyl]-2-phenoxybenzamide], the “Binding selectivity ratio” value is reported as 44.5.
With `O=C(NS(=O)(=O)c1ccc(NCCn2ccnn2)c([N+](=O)[O-])c1)c1ccc(N2CCN(Cc3ccccc3-c3ccc(Cl)cc3)CC2)cc1Oc1ccccc1` [Example 164, 4-{4-[(4′-chloro-1,1′-biphenyl-2-yl)methyl]piperazin-1-yl}-N-[(3-nitro-4-{[2-(1H-1,2,3-triazol-1-yl)ethyl]amino}phenyl)sulfonyl]-2-phenoxybenzamide] the “Binding selectivity ratio” value was 143.3.
For `CC1CC(=O)NN=C1c1ccc(S(=O)(=O)NC(=O)c2ccc(N3CCN(Cc4ccccc4-c4ccc(Cl)cc4)CC3)cc2Oc2ccccc2)cc1` (centres unmarked) [Example 29, 4-{4-[(4′-chloro-1,1′-biphenyl-2-yl)methyl]piperazin-1-yl}-N-{[4-(4-methyl-6-oxo-1,4,5,6-tetrahydropyridazin-3-yl)phenyl]sulfonyl}-2-phenoxybenzamide], the “Binding selectivity ratio” value was >55.4.
In the case of `CC1(C)CCC(CN2CCN(c3ccc(C(=O)NS(=O)(=O)c4ccc(NC(CO)C5CCOCC5)c([N+](=O)[O-])c4)c(Oc4ccc5[nH]ccc5c4)c3)CC2)=C(c2ccc(Cl)cc2)C1` (centres unmarked) [EXAMPLE 242, 4-(4-{[2-(4-chlorophenyl)-4,4-dimethylcyclohex-1-en-1-yl]methyl}piperazin-1-yl)-N-({4-[(2-hydroxy-1-tetrahydro-2H-pyran-4-ylethyl)amino]-3-nitrophenyl}sulfonyl)-2-(1H-indol-5-yloxy)benzamide], the “Binding selectivity ratio” value is reported as >367.6.
`CC(=O)N1CCC(Nc2ccc(S(=O)(=O)NC(=O)c3ccc(N4CCN(CC5=C(c6ccc(Cl)cc6)CC(C)(C)CC5)CC4)cc3Oc3ccc4[nH]ccc4c3)cc2[N+](=O)[O-])CC1` [EXAMPLE 334, N-({4-[(1-acetylpiperidin-4-yl)amino]-3-nitrophenyl}sulfonyl)-4-(4-{[2-(4-chlorophenyl)-4,4-dimethylcyclohex-1-en-1-yl]methyl}piperazin-1-yl)-2-(1H-indol-5-yloxy)benzamide] was tested, and the “Binding selectivity ratio” value was >3697.5.
With `COCCNc1ccc(S(=O)(=O)NC(=O)c2ccc(N3CCN(CC4=C(c5ccc(Cl)cc5)CC(C)(C)CC4)CC3)cc2Oc2cccc3[nH]ccc23)cc1S(=O)(=O)C(F)(F)F` [EXAMPLE 309, 4-(4-{[2-(4-chlorophenyl)-4,4-dimethylcyclohex-1-en-1-yl]methyl}piperazin-1-yl)-2-(1H-indol-4-yloxy)-N-({4-[(2-methoxyethyl)amino]-3-[(trifluoromethyl)sulfonyl]phenyl}sulfonyl)benzamide] the “Binding selectivity ratio” value was >149.4.
For `CC1(C)CN(c2ccc(S(=O)(=O)NC(=O)c3ccc(N4CCN(Cc5ccccc5-c5ccc(Cl)cc5)CC4)cc3Oc3ccccc3)cc2)C1=O` [Example 30, 4-{4-[(4′-chloro-1,1′-biphenyl-2-yl)methyl]piperazin-1-yl}-N-{[4-(3,3-dimethyl-2-oxoazetidin-1-yl)phenyl]sulfonyl}-2-phenoxybenzamide], the “Binding selectivity ratio” value was >6.4.
For `CC1(C)CCC(CN2CCN(c3ccc(C(=O)NS(=O)(=O)c4ccc(NCC5CCOCC5)c(C#N)c4)c(Oc4ccc5[nH]ccc5c4)c3)CC2)=C(c2ccc(Cl)cc2)C1` [EXAMPLE 367, 4-(4-{[2-(4-chlorophenyl)-4,4-dimethylcyclohex-1-en-1-yl]methyl}piperazin-1-yl)-N-({3-cyano-4-[(tetrahydro-2H-pyran-4-ylmethyl)amino]phenyl}sulfonyl)-2-(1H-indol-5-yloxy)benzamide], the “Binding selectivity ratio” value was >143.2.
`CCN(CC)C1CCC(Nc2ccc(S(=O)(=O)NC(=O)c3ccc(N4CCN(CC5=C(c6ccc(Cl)cc6)CC(C)(C)CC5)CC4)cc3Oc3cccc4[nH]ccc34)cc2[N+](=O)[O-])CC1` (centres unmarked) [EXAMPLE 203, 4-(4-{[2-(4-chlorophenyl)-4,4-dimethylcyclohex-1-en-1-yl]methyl}piperazin-1-yl)-N-[(4-{[4-(diethylamino)cyclohexyl]amino}-3-nitrophenyl)sulfonyl]-2-(1H-indol-4-yloxy)benzamide] was tested, and the “Binding selectivity ratio” value was 139.5.
In the case of `O=C(NS(=O)(=O)c1ccc(NCCCN2CCOCC2)c([N+](=O)[O-])c1)c1ccc(N2CCN(Cc3ccccc3-c3ccc(Cl)cc3)CC2)cc1Oc1cccc2[nH]ccc12` [Example 58, 4-{4-[(4′-chloro-1,1′-biphenyl-2-yl)methyl]piperazin-1-yl}-2-(1H-indol-4-yloxy)-N-({4-[(3-morpholin-4-ylpropyl)amino]-3-nitrophenyl}sulfonyl)benzamide], the “Binding selectivity ratio” value is reported as 265.5.
With `CC1(C)CCC(CN2CCN(c3ccc(C(=O)NS(=O)(=O)c4ccc(NCC5CN(CC(F)F)CCO5)c([N+](=O)[O-])c4)c(Oc4cccc5[nH]cnc45)c3)CC2)=C(c2ccc(Cl)cc2)C1` (centres unmarked) [EXAMPLE 415, 2-(1H-benzimidazol-4-yloxy)-4-(4-{[2-(4-chlorophenyl)-4,4-dimethylcyclohex-1-en-1-yl]methyl}piperazin-1-yl)-N-{[4-({[4-(2,2-difluoroethyl)morpholin-2-yl]methyl}amino)-3-nitrophenyl]sulfonyl}benzamide] the “Binding selectivity ratio” value was 17326.89211.
With `CNc1ccc(S(=O)(=O)NC(=O)c2ccc(N3CCN(CC4=C(c5ccc(Cl)cc5)CC(C)(C)CC4)CC3)cc2Oc2ccc3[nH]ccc3c2)cc1[N+](=O)[O-]` [EXAMPLE 245, 4-(4-{[2-(4-chlorophenyl)-4,4-dimethylcyclohex-1-en-1-yl]methyl}piperazin-1-yl)-2-(1H-indol-5-yloxy)-N-{[4-(methylamino)-3-nitrophenyl]sulfonyl}benzamide] the “Binding selectivity ratio” value was >408.2.
In the case of `CC1(C)CCC(CN2CCN(c3ccc(C(=O)NS(=O)(=O)c4ccc(NCCCS(C)(=O)=O)c([N+](=O)[O-])c4)c(Oc4cccc5[nH]ccc45)c3)CC2)=C(c2ccc(Cl)cc2)C1` [EXAMPLE 294, 4-(4-{[2-(4-chlorophenyl)-4,4-dimethylcyclohex-1-en-1-yl]methyl}piperazin-1-yl)-2-(1H-indol-4-yloxy)-N-[(4-{[3-(methylsulfonyl)propyl]amino}-3-nitrophenyl)sulfonyl]benzamide], the “Binding selectivity ratio” value is reported as 252.

Source: patent publication US9125913B2, “Bcl-2-selective apoptosis-inducing agents for the treatment of cancer and immune diseases” (AbbVie Inc., priority 2008, dated 2015)
